# Source: PubChem BioAssay AID2060908 (Molecular Pharmacology Branch, DTP, NCI, 2025)
# pIC50: −log10 of the molar value.
# Tested on: 186277-243-T-J2-PDC complex spheroids, viability
# Assay: Anticancer human tumor 186277-243-T-J2-PDC patient-derived colon adenocarcinoma cell line growth inhibition [RAS]
# Settings: for pIC50: curve of first compound; for viability, T/C: stronger effect = lower value
# In short: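 Tumour cells grown as complex spheroids with HUVEC endothelial cells and mesenchymal stem cells, treated with RAS pathway inhibitor combinations. Each agent spans half-log steps from near clinical Cmax, or 10 microM where Cmax is unknown.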
# [1] = second compound 0.000949 µM, first compound 0.00316 µM
# [2] = second compound 0.000949 µM, first compound 0.01 µM
# [3] = second compound 0.000949 µM, first compound 0.0316 µM
# [4] = second compound 0.000949 µM, first compound 0.1 µM
# [5] = second compound 0.000949 µM, first compound 0.316 µM
# [6] = second compound 0.000949 µM, first compound 1 µM
# [7] = second compound 0.003 µM, first compound 0.00316 µM
# [8] = second compound 0.003 µM, first compound 0.01 µM
# [9] = second compound 0.003 µM, first compound 0.0316 µM
# [10] = second compound 0.003 µM, first compound 0.1 µM
# [11] = second compound 0.003 µM, first compound 0.316 µM
# [12] = second compound 0.003 µM, first compound 1 µM
# [13] = second compound 0.00949 µM, first compound 0.00316 µM
# [14] = second compound 0.00949 µM, first compound 0.01 µM
# [15] = second compound 0.00949 µM, first compound 0.0316 µM
# [16] = second compound 0.00949 µM, first compound 0.1 µM
# [17] = second compound 0.00949 µM, first compound 0.316 µM
# [18] = second compound 0.00949 µM, first compound 1 µM
# [19] = second compound 0.03 µM, first compound 0.00316 µM
# [20] = second compound 0.03 µM, first compound 0.01 µM
# [21] = second compound 0.03 µM, first compound 0.0316 µM
# [22] = second compound 0.03 µM, first compound 0.1 µM
# [23] = second compound 0.03 µM, first compound 0.316 µM
# [24] = second compound 0.03 µM, first compound 1 µM
# [25] = second compound 0.0949 µM, first compound 0.00316 µM
# [26] = second compound 0.0949 µM, first compound 0.01 µM
# [27] = second compound 0.0949 µM, first compound 0.0316 µM
# [28] = second compound 0.0949 µM, first compound 0.1 µM
# [29] = second compound 0.0949 µM, first compound 0.316 µM
# [30] = second compound 0.0949 µM, first compound 1 µM
# [31] = second compound 0.3 µM, first compound 0.00316 µM
# [32] = second compound 0.3 µM, first compound 0.01 µM
# [33] = second compound 0.3 µM, first compound 0.0316 µM
# [34] = second compound 0.3 µM, first compound 0.1 µM
# [35] = second compound 0.3 µM, first compound 0.316 µM
# [36] = second compound 0.3 µM, first compound 1 µM
# 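Further: spheroids exposed to compounds for 7 days before viability read.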
compound,measurement,setting,value
CC1(C)CCC(Nc2ncc(C(F)(F)F)c(-c3c[nH]c4c(P(C)(C)=O)c(C#N)ccc34)n2)CN1 (stereo unspecified) + C=CC(=O)N1CCN(c2nc(OCC3CCCN3C)nc3c(F)c(-c4nc(N)cc(C)c4C(F)(F)F)c(Cl)cc23)C(C)C1,pIC50,second compound 0.00316 µM,< 6.52
same,pIC50,second compound 0.01 µM,< 6.52
same,pIC50,second compound 0.0316 µM,< 6.52
same,pIC50,second compound 0.1 µM,< 6.52
same,pIC50,second compound 0.316 µM,< 6.52
same,pIC50,second compound 1 µM,< 6.52
same,"viability, T/C","second compound 0.00316 µM, first compound 0.000949 µM",94.9%
same,"viability, T/C","second compound 0.00316 µM, first compound 0.003 µM",98.4%
same,"viability, T/C","second compound 0.00316 µM, first compound 0.00949 µM",143%
same,"viability, T/C","second compound 0.00316 µM, first compound 0.03 µM",66.8%
same,"viability, T/C","second compound 0.00316 µM, first compound 0.0949 µM",75.5%
same,"viability, T/C","second compound 0.00316 µM, first compound 0.3 µM",56.9%
same,"viability, T/C","second compound 0.01 µM, first compound 0.000949 µM",109%
same,"viability, T/C","second compound 0.01 µM, first compound 0.003 µM",115%
same,"viability, T/C","second compound 0.01 µM, first compound 0.00949 µM",146%
same,"viability, T/C","second compound 0.01 µM, first compound 0.03 µM",58.6%
same,"viability, T/C","second compound 0.01 µM, first compound 0.0949 µM",60.2%
same,"viability, T/C","second compound 0.01 µM, first compound 0.3 µM",66.4%
same,"viability, T/C","second compound 0.0316 µM, first compound 0.000949 µM",101%
same,"viability, T/C","second compound 0.0316 µM, first compound 0.003 µM",118%
same,"viability, T/C","second compound 0.0316 µM, first compound 0.00949 µM",135%
same,"viability, T/C","second compound 0.0316 µM, first compound 0.03 µM",85.4%
same,"viability, T/C","second compound 0.0316 µM, first compound 0.0949 µM",66.7%
same,"viability, T/C","second compound 0.0316 µM, first compound 0.3 µM",65.9%
same,"viability, T/C","second compound 0.1 µM, first compound 0.000949 µM",96.6%
same,"viability, T/C","second compound 0.1 µM, first compound 0.003 µM",120%
same,"viability, T/C","second compound 0.1 µM, first compound 0.00949 µM",120%
same,"viability, T/C","second compound 0.1 µM, first compound 0.03 µM",71.4%
same,"viability, T/C","second compound 0.1 µM, first compound 0.0949 µM",69.7%
same,"viability, T/C","second compound 0.1 µM, first compound 0.3 µM",63.2%
same,"viability, T/C","second compound 0.316 µM, first compound 0.000949 µM",103%
same,"viability, T/C","second compound 0.316 µM, first compound 0.003 µM",96%
same,"viability, T/C","second compound 0.316 µM, first compound 0.00949 µM",98.5%
same,"viability, T/C","second compound 0.316 µM, first compound 0.03 µM",82.2%
same,"viability, T/C","second compound 0.316 µM, first compound 0.0949 µM",65%
same,"viability, T/C","second compound 0.316 µM, first compound 0.3 µM",62.1%
same,"viability, T/C","second compound 1 µM, first compound 0.000949 µM",112%
same,"viability, T/C","second compound 1 µM, first compound 0.003 µM",102%
same,"viability, T/C","second compound 1 µM, first compound 0.00949 µM",114%
same,"viability, T/C","second compound 1 µM, first compound 0.03 µM",70.8%
same,"viability, T/C","second compound 1 µM, first compound 0.0949 µM",64.3%
same,"viability, T/C","second compound 1 µM, first compound 0.3 µM",68.5%
C=CC(=O)Nc1cc(Nc2nccc(-c3cn(C)c4ccccc34)n2)c(OC)cc1N(C)CCN(C)C + CCn1c(-c2cc(N3CCN(C)CC3)cnc2C(C)OC)c2c3cc(ccc31)-c1csc(n1)CC(NC(=O)C1CC1C)C(=O)N1CCCC(N1)C(=O)OCC(C)(C)C2,pIC50,second compound 0.000949 µM,< 6.00
same,pIC50,second compound 0.003 µM,6.46
same,pIC50,second compound 0.00949 µM,7.96
same,pIC50,second compound 0.03 µM,> 8.50
same,pIC50,second compound 0.0949 µM,> 8.50
same,pIC50,second compound 0.3 µM,> 8.50
same,"viability, T/C",[1],103%
same,"viability, T/C",[2],112%
same,"viability, T/C",[3],107%
same,"viability, T/C",[4],115%
same,"viability, T/C",[5],85.2%
same,"viability, T/C",[6],52.6%
same,"viability, T/C",[7],106%
same,"viability, T/C",[8],104%
same,"viability, T/C",[9],91.8%
same,"viability, T/C",[10],81.6%
same,"viability, T/C",[11],52.3%
same,"viability, T/C",[12],15.8%
same,"viability, T/C",[13],58.3%
same,"viability, T/C",[14],48.7%
same,"viability, T/C",[15],40.6%
same,"viability, T/C",[16],28.8%
same,"viability, T/C",[17],10.8%
same,"viability, T/C",[18],5.19%
same,"viability, T/C",[19],18.4%
same,"viability, T/C",[20],15.4%
same,"viability, T/C",[21],12.1%
same,"viability, T/C",[22],9.43%
same,"viability, T/C",[23],5.63%
same,"viability, T/C",[24],4.11%
same,"viability, T/C",[25],7.42%
same,"viability, T/C",[26],6.89%
same,"viability, T/C",[27],5.88%
same,"viability, T/C",[28],4.8%
same,"viability, T/C",[29],4.22%
same,"viability, T/C",[30],2.72%
same,"viability, T/C",[31],6%
same,"viability, T/C",[32],6%
same,"viability, T/C",[33],4.87%
same,"viability, T/C",[34],4.47%
same,"viability, T/C",[35],4.17%
same,"viability, T/C",[36],2.68%
O=C(c1ccc(F)c(F)c1Nc1ccc(I)cc1F)N1CC(O)([C@@H]2CCCCN2)C1 + CCn1c(-c2cc(N3CCN(C)CC3)cnc2C(C)OC)c2c3cc(ccc31)-c1csc(n1)CC(NC(=O)C1CC1C)C(=O)N1CCCC(N1)C(=O)OCC(C)(C)C2,pIC50,second compound 0.000949 µM,7.19
same,pIC50,second compound 0.003 µM,7.50
same,pIC50,second compound 0.00949 µM,> 8.50
same,pIC50,second compound 0.03 µM,> 8.50
same,pIC50,second compound 0.0949 µM,> 8.50
same,pIC50,second compound 0.3 µM,> 8.50
same,"viability, T/C",[1],92.7%
same,"viability, T/C",[2],89.7%
same,"viability, T/C",[3],83%
same,"viability, T/C",[4],29.1%
same,"viability, T/C",[5],8.1%
same,"viability, T/C",[6],4.25%
same,"viability, T/C",[7],114%
same,"viability, T/C",[8],97.8%
same,"viability, T/C",[9],47.8%
same,"viability, T/C",[10],18.8%
same,"viability, T/C",[11],6.27%
same,"viability, T/C",[12],3.79%
same,"viability, T/C",[13],43.6%
same,"viability, T/C",[14],30.6%
same,"viability, T/C",[15],13.6%
same,"viability, T/C",[16],7.57%
same,"viability, T/C",[17],4.59%
same,"viability, T/C",[18],3.19%
same,"viability, T/C",[19],14.9%
same,"viability, T/C",[20],9.48%
same,"viability, T/C",[21],6.73%
same,"viability, T/C",[22],3.92%
same,"viability, T/C",[23],3.2%
same,"viability, T/C",[24],2.56%
same,"viability, T/C",[25],6.07%
same,"viability, T/C",[26],5.43%
same,"viability, T/C",[27],4.04%
same,"viability, T/C",[28],2.64%
same,"viability, T/C",[29],2.57%
same,"viability, T/C",[30],2.4%
same,"viability, T/C",[31],5%
same,"viability, T/C",[32],4.75%
same,"viability, T/C",[33],2.99%
same,"viability, T/C",[34],2.73%
same,"viability, T/C",[35],2.91%
same,"viability, T/C",[36],2.4%
